Measured values taken from patent US20210130308A1, “MODULATORS OF EUKARYOTIC INITIATION FACTOR 2” (Denali Therapeutics Inc., priority 2018, published 2021).

Test system: ATF4 translation (ISR pathway activation)
Experiment: ATF4 Nano Luciferase reporter integrated stress response (ISR) assay in H4 ATF4-NLuc (clone 17) cells
Assay type: cell-based, human
Details: Homo sapiens, 0.5 h; H4 ATF4-NLuc (clone 17) cells; compounds 30 minutes at 37 degree Celsius, then 50 um sodium arsenite for 6 additional hours; luminescence readout; read-out: IC50
Source text: Cellular stress leads to activation of the integrated stress response pathway through one of four eukaryotic initiation factor 2α kinases and halts global translation, while allowing for the translation of select transcripts like ATF4 (activating transcription factor 4) that are important for the response to cellular stress. During normal conditions, small open reading frames (ORFs) in the 5′ UTR of ATF4 occupy the ribosome and prevent translation of the coding sequence of ATF4. During stress conditions however, the ribosome scans past these upstream ORFs and preferentially begins translation at the coding sequence of ATF4. In this way, the translation, and thus protein level of ATF4 is a readout of ISR pathway activation. Thus, a fusion of the uORFs and the beginning of the coding sequence of ATF to a common cellular reporter like nano-luciferase allows for a sensitive and high-throughput readout of ISR pathway activity.
Compounds as provided herein were tested in the following assay. The ATF4 Nano Luciferase reporter was constructed by fusing the human full length 5′ untranslated region (5′-UTR) and a small portion of the coding sequence of the ATF4 gene upstream of the Nano Luciferase (NLuc) coding sequence lacking it's start codon. Specifically, nucleotides +1 through +364 (relative to the transcriptional start site) of ATF4 transcript variant 2 (NCBI NM_182810.2) flanked 5′ by EcoRI and 3′ by BamHI restriction enzyme sites were synthesized and cloned into the EcoRI/BamHI cloning sites of pLVX-EF1a-IRES-Puro lentivirus vector (Clontech). […]. H4 cells were selected with […] Puromycin, and clonal cell lines generated by limiting dilution. We utilized this cell line to generate an integrated stress response (ISR) assay to evaluate the activity of ISR pathway inhibitors via luminescence readout. The H4 ATF4-NLuc (clone 17) cell line is plated at a density of […] in 96-well or 384-well respectively in DMEM+10% fetal bovine serum. 24-hours later test compounds diluted in dimethyl sulfoxide (DMSO) are added for 30 minutes at 37 degree Celsius, followed by ISR pathway activation with 50 um sodium arsenite aqueous solution for 6 additional hours. Nano Glo luciferase reagent (N1150, Promega) is added according to manufacturer instructions and the luminescence signal (corresponding to the level of ATF4 translation and thus ISR pathway activation) is read with a standard plate reader with luminescence detection capabilities.
In the table below, activity of the tested compounds is provided in Table 3 as follows: +++=IC50<1 μM; ++=IC50 1-10 μM; +=IC50>10 μM.

**Q.** For `O=C(COc1ccc(Cl)c(F)c1)N[C@H]1C[C@@H]2CN(C(=O)COC3CCC3)C[C@@H]2C1` [Example 40, 2-(4-chloro-3-fluorophenoxy)-N-((3aR,5s,6aS)-2-(2-cyclobutoxyacetyl)octahydrocyclopenta[c]pyrrol-5-yl)acetamide], which IC50 is on record?
**A.** < 1000 nM

**Q.** Which IC50 does the source give for `O=C(COC1CCC1)NC12CC(NC(=O)c3ccc4cc(Cl)ccc4n3)(C1)C2` [Example 65, 6-chloro-N-[1-[[2-(cyclobutoxy)acetyl]amino]-3-bicyclo[1.1.1]pentanyl]quinoline-2-carboxamide] here?
**A.** < 1000 nM

**Q.** For `O=C(COc1ccc(Cl)c(F)c1)NC1CC2(C1)CN(C(=O)COC1CC(C(F)(F)F)C1)C2` (centres unmarked) [Example 17, 2-(4-chloro-3-fluoro-phenoxy)-N-[2-[2-[3-(trifluoromethyl)cyclobutoxy]acetyl]-2-azaspiro[3.3]heptan-6-yl]acetamide], which IC50 is on record?
**A.** < 1000 nM

**Q.** Which IC50 does the source give for `O=C(CO[C@H]1C[C@@H](OC(F)(F)F)C1)NC1CN(C(=O)COC2CC(OC(F)(F)F)C2)C1` (stereo partly drawn) [Example 25, 2-[3-cis (trifluoromethoxy)cyclobutoxy]-N-[1-[2-[3-cis-(trifluoromethoxy)cyclobutoxy]acetyl]azetidin-3-yl]acetamide] here?
**A.** 1000 to 10000 nM

**Q.** Which IC50 does the source give for `CC1(C)CC(OCC(=O)NC23CC(NC(=O)COc4ccc(Cl)cc4)(C2)C3)C1` [Example 5, 2-(4-chlorophenoxy)-N-(3-(2-(3,3-dimethylcyclobutoxy)acetamido)bicyclo[1.1.1]pentan-1-yl)acetamide] here?
**A.** < 1000 nM

**Q.** `O=C(COC1CC(OC(F)(F)F)C1)NC12CC(NC(=O)c3ccc4c(F)c(F)ccc4n3)(C1)C2` (stereo not drawn) [Example 68, 5,6-difluoro-N-(3-(2-(3-cis-(trifluoromethoxy)cyclobutoxy)acetamido)bicyclo[1.1.1]pentan-1-yl)quinoline-2-carboxamide] was tested. Which IC50 did it give?
**A.** < 1000 nM

**Q.** Which IC50 does the source give for `O=C(COc1ccc(Cl)c(F)c1)N[C@H]1CC[C@H](c2nnc(C3CC(OC(F)(F)F)C3)o2)CC1` (stereo partly drawn) [Example 28, 2-(4-chloro-3-fluoro-phenoxy)-N-[4-[5-[3-cis-(trifluoromethoxy)cyclobutyl]-1,3,4-oxadiazol-2-yl]cyclohexyl]acetamide] here?
**A.** < 1000 nM

**Q.** How did the IC50 turn out when `O=C(NC1CCN(C(=O)COC2CC(OC(F)(F)F)C2)CC1)c1ccc2cc(Cl)ccc2n1` (stereo not drawn) [Example 63, 6-chloro-N-[1-[2-[3-cis-(trifluoromethoxy)cyclobutoxy]acetyl]-4-piperidyl]quinoline-2-carboxamide] was run?
**A.** < 1000 nM

**Q.** For `O=C(COC1CC(OC(F)(F)F)C1)NC12CC(NC(=O)c3nc4cc(Cl)ccc4s3)(C1)C2` (stereo not drawn) [Example 52, 5-chloro-N-[1-[[2-[3-cis-(trifluoromethoxy)cyclobutoxy]acetyl]amino]-3-bicyclo[1.1.1]pentanyl]-1,3-benzothiazole-2-carboxamide], which IC50 is on record?
**A.** < 1000 nM

**Q.** For `O=C(COc1ccc(Cl)cc1)NC12CC(NC(=O)COC3CC(C(F)(F)F)C3)(C1)C2` (single isomer, unassigned) [3 (first eluting isomer), 2-(4-chlorophenoxy)-N-(3-(2-(3-(trifluoromethyl)cyclobutoxy)acetamido)bicyclo[1.1.1]pentan-1-yl)acetamide], which IC50 is on record?
**A.** < 1000 nM

**Q.** With `O=C(COc1ccc(Cl)c(F)c1)NC12CC(NC(=O)COC3CC(C(F)F)C3)(C1)C2` (stereo not drawn) [Example 38, 2-(4-chloro-3-fluoro-phenoxy)-N-[3-[[2-[3-cis-(difluoromethyl)cyclobutoxy]acetyl]amino]-1-bicyclo[1.1.1]pentanyl]acetamide] as the compound, how does the IC50 read?
**A.** < 1000 nM

**Q.** For `O=C(COc1ccc(Cl)c(F)c1)NC1CC2(CCN(C(=O)COC3CC(C(F)(F)F)C3)CC2)C1` (centres unmarked) [Example 16, 2-(4-chloro-3-fluoro-phenoxy)-N-[7-[2-[3-(trifluoromethyl)cyclobutoxy]acetyl]-7-azaspiro[3.5]nonan-2-yl]acetamide], which IC50 is on record?
**A.** < 1000 nM

**Q.** For `O=C(COc1ccc(Cl)c(F)c1)NC1CN(c2nnc(COC3CC(OC(F)(F)F)C3)o2)C1` (stereo not drawn) [Example 23, 2-(4-chloro-3-fluoro-phenoxy)-N-[1-[5-[[3-cis-(trifluoromethoxy)cyclobutoxy]methyl]-1,3,4-oxadiazol-2-yl]azetidin-3-yl]acetamide], which IC50 is on record?
**A.** < 1000 nM

**Q.** For `O=C(COCC1CC1(F)F)NC12CC(NC(=O)c3ccc4cc(C(F)(F)F)ccc4n3)(C1)C2` (centres unmarked) [Example 55, N-[1-[[2-[(2,2-difluorocyclopropyl)methoxy]acetyl]amino]-3-bicyclo[1.1.1]pentanyl]-6-(trifluoromethyl)quinoline-2-carboxamide], which IC50 is on record?
**A.** < 1000 nM

**Q.** For `O=C(COc1ccc(Cl)c(F)c1)NC1CCN(CC(F)(F)COC2CC(OC(F)(F)F)C2)CC1` (stereo not drawn) [Example 57, 2-(4-chloro-3-fluorophenoxy)-N-(1-(2,2-difluoro-3-(3-cis-(trifluoromethoxy)cyclobutoxy)propyl)piperidin-4-yl)acetamide], which IC50 is on record?
**A.** < 1000 nM

**Q.** Which IC50 does the source give for `O=C(COc1ccc(C(F)(F)F)cc1)NC12CC(N3CCN(C4CC(OC(F)(F)F)C4)C3=O)(C1)C2` (centres unmarked) [Example 74] here?
**A.** < 1000 nM

**Q.** With `O=C(COC1CC(OC(F)(F)F)C1)NC1CC2(C1)CC(c1nnc(C3CC(OC(F)(F)F)C3)o1)C2` (stereo not drawn) [Example 32, 2-[3-cis-(trifluoromethoxy)cyclobutoxy]-N-[6-[5-[3-cis-(trifluoromethoxy)cyclobutyl]-1,3,4-oxadiazol-2-yl]spiro[3.3]heptan-2-yl]acetamide] as the compound, how does the IC50 read?
**A.** < 1000 nM

**Q.** `O=C(COc1ccc(Cl)c(F)c1)NC1CCN(c2nnc(C3CC(OC(F)(F)F)C3)o2)CC1` (stereo not drawn) [Example 26, 2-(4-chloro-3-fluoro-phenoxy)-N-[1-[5-[3-cis-(trifluoromethoxy)cyclobutyl]-1,3,4-oxadiazol-2-yl]-4-piperidyl]acetamide] was tested. Which IC50 did it give?
**A.** < 1000 nM

**Q.** With `O=C(COC1CC(OC(F)(F)F)C1)NC12CC(NC(=O)[C@H]3CCc4cc(C(F)(F)F)ccc4O3)(C1)C2` (single isomer, unassigned) [Example 72 (first eluting isomer), N-(3-(2-(3-cis-(trifluoromethoxy)cyclobutoxy)acetamido)bicyclo[1.1.1]pentan-1-yl)-6-(trifluoromethyl)chroman-2-carboxamide] as the compound, how does the IC50 read?
**A.** < 1000 nM

**Q.** How did the IC50 turn out when `O=C(COc1ccc(Cl)c(F)c1)NC1CCN(CCO[C@H]2C[C@@H](OC(F)(F)F)C2)CC1` [Example 27, 2-(4-chloro-3-fluoro-phenoxy)-N-[1-[2-[3-cis-(trifluoromethoxy)cyclobutoxy]ethyl]-4-piperidyl]acetamide] was run?
**A.** < 1000 nM

**Q.** With `CC1CC(OCC(=O)NC23CC(NC(=O)COc4ccc(Cl)cc4)(C2)C3)C1` (stereo not drawn) [Example 36, 2-(4-chlorophenoxy)-N-[3-[[2-(3-cis-methylcyclobutoxy)acetyl]amino]-1-bicyclo[1.1.1]pentanyl]acetamide] as the compound, how does the IC50 read?
**A.** < 1000 nM

**Q.** For `O=C(COc1ccc(Cl)c(F)c1)NC12CC(NC(=O)COC3CC(OC(F)F)C3)(C1)C2` (stereo not drawn) [Example 34, 2-(4-chloro-3-fluoro-phenoxy)-N-[3-[[2-[3-cis-(difluoromethoxy)cyclobutoxy]acetyl]amino]-1-bicyclo[1.1.1]pentanyl]acetamide], which IC50 is on record?
**A.** < 1000 nM

**Q.** With `O=C(COc1ccc(Cl)c(F)c1)NC1CCN(CCOC2CC(OC(F)(F)F)C2)CC1(F)F` (stereo not drawn) [Example 47, 2-(4-chloro-3-fluoro-phenoxy)-N-[3,3-difluoro-1-[2-[3-cis-(trifluoromethoxy)cyclobutoxy]ethyl]-4-piperidyl]acetamide] as the compound, how does the IC50 read?
**A.** < 1000 nM
